PubChem BioAssay (NCI)
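Assay format: 96-well plates, 48-hour exposure. Abbreviation: GI50, concentration required for 50% inhibition of growth. TGI is the concentration that stops growth completely.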

Assays:
Assay in all cases: NCI anticancer screen, dose series, 48 h
NCI-H226 lung = tested on: NCI-H226 lung
OVCAR-5 ovarian = tested on: OVCAR-5 ovarian
HCT-116 colon = tested on: HCT-116 colon
HOP-92 NSCLC = tested on: HOP-92 NSCLC
HL-60(TB) leukemia = tested on: HL-60(TB) leukemia
OVCAR-8 ovarian = tested on: OVCAR-8 ovarian
HOP-62 NSCLC = tested on: HOP-62 NSCLC
NCI-H522 lung = tested on: NCI-H522 lung
NCI/ADR-RES ovarian = tested on: NCI/ADR-RES ovarian
HCC-2998 colon = tested on: HCC-2998 colon
PC-3 prostate = tested on: PC-3 prostate

SMILES	TGI (NCI-H226 lung) [µM]	TGI (OVCAR-5 ovarian) [µM]	TGI (HCT-116 colon) [µM]	TGI (HOP-92 NSCLC) [µM]	TGI (HL-60(TB) leukemia) [µM]	TGI (OVCAR-8 ovarian) [µM]	TGI (HOP-62 NSCLC) [µM]	TGI (NCI-H522 lung) [µM]	TGI (NCI/ADR-RES ovarian) [µM]	TGI (HCC-2998 colon) [µM]	TGI (PC-3 prostate) [µM]	GI50 (HCC-2998 colon) [µM]	GI50 (NCI-H226 lung) [µM]	GI50 (OVCAR-5 ovarian) [µM]	GI50 (HCT-116 colon) [µM]	GI50 (PC-3 prostate) [µM]	GI50 (OVCAR-8 ovarian) [µM]	GI50 (HOP-62 NSCLC) [µM]	GI50 (NCI-H522 lung) [µM]	GI50 (NCI/ADR-RES ovarian) [µM]
CN(C)C(=S)SCc1ccccc1	> 100	> 100	> 100	> 100	> 100	> 100	> 100	> 100	> 100											
C/C(=C\c1ccc2c(c1)OCO2)[N+](=O)[O-]	28.6	15.1	> 100	5.53	5.73	5.79	> 100	3.21	37.9	7.34	5.9									
C(=N/Nc1ccccn1)/c1cccnc1	> 100	> 100	> 100	> 100	> 100	> 100	> 100	> 100	> 100	> 100	> 100									
CCOC(=O)c1cc(Cl)ccc1OC(N)=O	> 100	> 100	> 100	> 100	> 100	> 100	> 100		> 100	> 100										
Nc1nc(Cl)nc2c1ncn2C1CCC(CO)O1 (stereo not drawn)	> 100	> 100	> 100	> 100		> 100	> 100		> 100		> 100									
Clc1ccc(CSCc2ccc(Cl)cc2Cl)c(Cl)c1	> 100	> 100	> 100	> 100	> 100	> 100	> 100	74	> 100	98.2	> 100									
N#CC(C#N)=Cc1ccc(-c2ccc(-c3nc4ccccc4s3)cc2)s1	36.8	30.5	31.1			72.2	34.2	54	22.7	65.8	23.1	27.9	14.7	14	12.3	6.23	23.1	13	19.4	5.74
CC(C)(C)C1=NN=C2c3ccccc3C(=O)C21 (stereo not drawn)	> 100	> 100	> 100	63.7	> 100	> 100	> 100	> 100	> 100	> 100	> 100									
